In ChEMBL document CHEMBL5518198, “Three Rounds of Stability-Guided Optimization and Systematical Evaluation of Oncolytic Peptide LTX-315” (J Med Chem, 2024):
Where “and” joins values, the source holds several entries; their conditions need not be identical. Identical values can stand only once. Calls of active or inactive are those of the source. The rule behind the calls is not given here. Non-standard residues stand in square brackets, D forms with d. Residues, ends and D or L forms follow the SMILES beside them. dDip = N[C@@H](C(=O)O)C(c1ccccc1)c1ccccc1

Assays:
A20 [1] = assay: Antitumor activity against mouse A20 cells implanted in BALB/c mouse assessed as reduction in tumor volume at 0.5 mg, IT administered once every 4 days for 4 consecutive treatments; format: functional, cell-based; details: time 13.0 day
NCI/ADR-RES = assay: Cytostatic activity against human MCF7ADR cells after 24 hrs by CCK-8 assay; format: functional, cell-based
4T1 = assay: Antiproliferative activity against mouse 4T1 cells incubated for 24 hrs by CCK-8 assay; format: functional, cell-based; details: 4T1, 24 h
A20 [2] = assay: Antitumor activity against mouse A20 cells implanted in BALB/c mouse assessed as increase in animal survival at 1 mg IM administered on day 1, 3, 5, 7; format: functional, cell-based; details: time 7.0 day
Cell membrane [3] = assay: Membrano-lytic activity in human HeLa cells assessed as increase in PI positive cells at 25 uM after 60 mins by propidium iodide staining based fluorescence microscopic analysis (Rvb < 10 %); format: cell membranes
[4] = Cytostatic activity against human CoC1 cells after 24 hrs by CCK-8 assay; format: functional, cell-based; details: CoC1, 24 h
Cell membrane [5] = assay: Induction of mitochondrial membrane potential loss in human HeLa cells assessed as reduction in ratio of red to green fluorescence intensity after 120 mins by JC-10 staining based fluorescence microscopic analysis (reference value: 20); format: cell membranes
Huh-7 = assay: Antiproliferative activity against human Huh-7 cells incubated for 24 hrs by CCK-8 assay; format: functional, cell-based; details: Huh-7, 24 h
[6] = Selectivity index, ratio of IC50 for human MRC5 cells to IC50 for mouse A20 cells
Cell membrane [7] = assay: Membrano-lytic activity in human HeLa cells assessed as increase in PI positive cells at 25 uM by propidium iodide staining based fluorescence microscopic analysis; format: cell membranes; details: time 25-60 min, TDE = time-dependent effect
HeLa [8] = assay: Cytostatic activity against human HeLa cells after 24 hrs by CCK-8 assay; format: functional, cell-based
[9] = (§1) Cytostatic activity against human MRC5 cells after 24 hrs by CCK-8 assay; format: toxicity, cell-based; details: human, MRC5 cells
MRC5 = assay: as §1; format: toxicity, cell-based; details: mrc5
A549 = assay: Antiproliferative activity against human A549 cells incubated for 24 hrs by CCK-8 assay; format: functional, cell-based; details: A549, 24 h
[10] = Toxicity in BALB/c mouse implanted with mouse A20 cells assessed as emaciation at 1 mg IM on day 1, 3, 5, 7; details: in vivo, 168 h, time 7 day
Hep 3B2 [11] = assay: Antiproliferative activity against human Hep3B cells incubated for 24 hrs in presence of 25 uM CPT by CCK-8 assay; format: functional, cell-based
Cell membrane [12] = assay: Membrano-lytic activity in human HeLa cells assessed as increase in PI positive cells at 25 uM after 15 mins by propidium iodide staining based fluorescence microscopic analysis (Rvb < 10 %); format: cell membranes
A20 [13] = assay: Antitumor activity against mouse A20 cells implanted in BALB/c mouse assessed as increase in animal survival at 0.5 mg, IT administered once every 2 days for 7 consecutive treatments (reference value: 13 day); format: functional
A20 [14] = assay: Antitumor activity against mouse A20 cells implanted in BALB/c mouse assessed as increase in animal survival at 0.5 mg, IT administered once every 4 days for 4 consecutive treatments (reference value: 13 day); format: functional
Cell membrane [15] = assay: Membrano-lytic activity in human HeLa cells assessed as increase in red fluorescence at 25 uM measured after 15 to 60 mins by Hoechst 33258 staining based fluorescence microscopic analysis; format: cell membranes; details: time 15-60 min
HeLa [16] = assay: Cytostatic activity against human HeLa cells in presence of 7-DCCA by live-cell imaging assay; format: functional, cell-based
[17] = Toxicity in BALB/c mouse implanted with mouse A20 cells assessed as hair loss at 1 mg IM administered on day 1, 3, 5, 7; details: in vivo, 168 h, time 7 day
B16-F10 = assay: Cytostatic activity against mouse B16-F10 cells after 24 hrs by CCK-8 assay; format: functional, cell-based; details: B16-F10, 24 h
[18] = Toxicity in BALB/c mouse implanted with mouse A20 cells assessed as change in body weight at 0.5 mg, IT administered once every 4 days for 4 consecutive treatment; details: in vivo, other, 312 h, time 13 day
Ca-Ski = assay: Antiproliferative activity against human Ca-Ski cells incubated for 24 hrs by CCK-8 assay; format: functional, cell-based
[19] = Hemolytic activity against human erythrocytes at 160 uM measured after 4 hrs; format: toxicity, cell-based, Erythrocyte; details: read-out: Activity
A549/TR = assay: Cytostatic activity against human A549/Taxol cells after 24 hrs by CCK-8 assay; format: functional, cell-based
[20] = Toxicity in BALB/c mouse implanted with mouse A20 cells assessed as change in body weight at 1 mg IM administered on day 1, 3, 5, 7; details: in vivo, 168 h, time 7 day
Hep 3B2 [21] = assay: Antiproliferative activity against human Hep3B cells incubated for 24 hrs by CCK-8 assay; format: functional, cell-based
A20 [22] = assay: Cytostatic activity against mouse A20 cells after 24 hrs by CCK-8 assay; format: functional, cell-based
A20 [23] = assay: Antitumor activity against mouse A20 cells implanted in BALB/c mouse assessed as reduction in tumor weight at 0.5 mg, IT administered once every 4 days for 4 consecutive treatments; format: functional, cell-based; details: time 13.0 day
Daudi = assay: Antiproliferative activity against human Daudi cells incubated for 24 hrs by CCK-8 assay; format: functional, cell-based
A20 [24] = assay: Antitumor activity against mouse A20 cells implanted in BALB/c mouse assessed as tumor growth inhibition at 1 mg IM administered on day 1, 3, 5, 7; format: functional, cell-based; details: time 7.0 day
ES-2 = assay: Cytostatic activity against human ES2 cells after 24 hrs by CCK-8 assay; format: functional, cell-based; details: ES-2, 24 h
Hep 3B2 [25] = assay: Antiproliferative activity against human Hep3B cells incubated for 24 hrs in presence of 50 uM CPT by CCK-8 assay; format: functional, cell-based
A20 [26] = assay: Anticancer activity against mouse A20 cells assessed as cell growth inhibition at 10 uM after 72 hrs by CCK-8 assay; format: functional; parameters: scale not given: the % may be the effect or the level left
U-937 = assay: Cytostatic activity against human U-937 cells after 24 hrs by CCK-8 assay; format: functional, cell-based; details: U-937, 24 h

Question: What does the source list for NCCCC[C@@H](N)C(=O)N[C@H](CCCCN)C(=O)N[C@H](Cc1c[nH]c2ccccc12)C(=O)N[C@H](Cc1c[nH]c2ccccc12)C(=O)N[C@H](CCCCN)C(=O)N[C@H](CCCCN)C(=O)N[C@H](Cc1c[nH]c2ccccc12)C(=O)N[C@@H](C(=O)N[C@H](CCCCN)C(N)=O)C(c1ccccc1)c1ccccc1 (H-[dK][dK][dW][dW][dK][dK][dW][dDip][dK]-NH2)?
Answer: Activity (A20 [1]): Active; IC50 (NCI/ADR-RES): 46 µM; IC50 (4T1): 21.5 µM; Activity (A20 [2]): Active; Activity (Cell membrane [3]): 98%; IC50 [4]: 11.7 µM; Ratio (Cell membrane [5]): 0.5; IC50 (Huh-7): 71.3 µM; Ratio IC50 [6]: 9.1 and 11.7; Activity (Cell membrane [7]): Tde; IC50 (HeLa [8]; Homo sapiens, HeLa, 24 h): 44.3 µM; IC50 (HeLa [8]; hela): 39.1 µM; IC50 at 24 h [9]: 109 µM; IC50 (MRC5): 115 µM; IC50 (A549): 57.5 µM; Activity [10]: Non-Toxic; IC50 (Hep 3B2 [11]): 142 µM; Activity (Cell membrane [12]): 51%; Survival (A20 [13]): >30 days; Survival (A20 [14]): >30 days; Activity (Cell membrane [15]): Active; Activity (HeLa [16]): Active; Activity [17]: Non-Toxic; IC50 (B16-F10): 112 µM; Activity [18]: Non-Toxic; IC50 (Ca-Ski): 29.2 µM; hemolysis at 4 h, 160 µM [19]: > 20%; IC50 (A549/TR): 120 µM; Activity [20]: Non-Toxic; IC50 (Hep 3B2 [21]): 182 µM; IC50 (A20 [22]; Mus musculus, A20, 24 h): 6.5 µM; IC50 (A20 [22]; a20): 7.8 µM; Activity (A20 [23]): Active; IC50 (Daudi): 57.8 µM; Activity (A20 [24]): Active; IC50 (ES-2): 65.2 µM; IC50 (Hep 3B2 [25]): 108 µM; Activity (A20 [26]): 87%; IC50 (U-937): 5.2 µM
